Bridge positions count the residues as written; N and C are the ends. Square brackets hold non-standard residues; d marks the D form. Peptide text beside a SMILES is read from it. Hyp = O=C(O)[C@@H]1C[C@@H](O)CN1; Cit = NC(=O)NCCC[C@H](N)C(=O)O
Experiments:
[1] = biological target: T1, hAMY3 receptor (Homo sapiens, UniProt O60896+P30988); assay: cAMP assay for in vitro receptor activation, hAMY3-R; assay type: cell-based; conditions: cAMP assay, hAMY3 receptor; read-out: hAMY3R EC50
T1 sequence (P30988 25-474): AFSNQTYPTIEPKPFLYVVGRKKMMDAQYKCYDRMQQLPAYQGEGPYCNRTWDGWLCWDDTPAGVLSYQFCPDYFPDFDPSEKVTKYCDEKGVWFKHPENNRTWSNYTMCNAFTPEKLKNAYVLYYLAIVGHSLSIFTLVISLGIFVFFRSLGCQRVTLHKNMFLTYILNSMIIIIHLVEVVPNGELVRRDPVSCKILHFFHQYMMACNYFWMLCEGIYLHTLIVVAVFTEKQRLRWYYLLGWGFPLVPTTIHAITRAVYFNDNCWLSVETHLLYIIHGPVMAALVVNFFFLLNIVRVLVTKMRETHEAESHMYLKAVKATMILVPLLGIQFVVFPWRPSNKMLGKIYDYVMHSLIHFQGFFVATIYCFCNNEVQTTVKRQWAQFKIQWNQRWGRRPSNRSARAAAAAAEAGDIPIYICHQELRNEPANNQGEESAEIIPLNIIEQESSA
T1 sequence (O60896 24-148 partner): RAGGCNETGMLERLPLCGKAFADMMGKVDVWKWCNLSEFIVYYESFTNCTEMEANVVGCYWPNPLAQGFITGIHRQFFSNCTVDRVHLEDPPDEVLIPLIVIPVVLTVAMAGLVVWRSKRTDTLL
In short: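 Thawed cells from a sub-cloned monoclonal hAMY3-overexpressing line are plated in DPBS containing 0.05% casein and 0.5 mM IBMX. Test compounds are added immediately at graded doses for 30 min at room temperature. Reagents for cAMP detection are then added, and TR-FRET is recorded after one hour.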

[2] = Physical stability of peptide analogues (Thioflavin T fibrillation); assay type: physicochemical; conditions: maximum ThT signal normalized between hAMY maximum and buffer background; 40° C., shaking, four days; pH 7 per table title
In short: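 Peptides in 50 mM sodium acetate pH 4 or 50 mM sodium phosphate pH 7 were preincubated 1 h, mixed with 4 μM ThT, held at 40° C with 700 rpm shaking before each read. Fluorescence (ex 450/em 480 nm) every 10 min for four days; LOESS-smoothed maximum signal normalized in percent between hAMY and buffer.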

[3] = biological target: hAM1 receptor (Homo sapiens, UniProt O60895+Q16602); assay: cAMP assay for in vitro receptor activation, hAM1-R; assay type: cell-based; conditions: cAMP assay, hAM1 receptor; read-out: hAM1R EC50
In short: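 Read-out is intracellular cAMP as a measure of receptor activation. Cells stably overexpressing hAM1 were subcloned to a monoclonal line, then thawed and seeded at 8000 cells/well in DPBS with 0.05% casein and the phosphodiesterase inhibitor IBMX at 0.5 mM.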

Sequence of hAM1 receptor (Q16602 23-461): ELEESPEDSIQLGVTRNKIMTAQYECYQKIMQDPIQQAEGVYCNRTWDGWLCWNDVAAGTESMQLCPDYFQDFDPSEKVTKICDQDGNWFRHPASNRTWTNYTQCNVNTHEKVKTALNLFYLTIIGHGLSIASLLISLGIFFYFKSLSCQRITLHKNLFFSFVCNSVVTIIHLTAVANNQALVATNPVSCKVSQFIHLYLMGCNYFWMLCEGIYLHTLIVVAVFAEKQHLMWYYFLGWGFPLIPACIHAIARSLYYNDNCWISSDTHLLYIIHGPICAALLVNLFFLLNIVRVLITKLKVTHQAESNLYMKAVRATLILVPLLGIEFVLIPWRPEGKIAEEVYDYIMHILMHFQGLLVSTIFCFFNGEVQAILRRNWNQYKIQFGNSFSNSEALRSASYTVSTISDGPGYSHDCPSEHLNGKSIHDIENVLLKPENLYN
Sequence of hAM1 receptor (O60895 43-175 partner): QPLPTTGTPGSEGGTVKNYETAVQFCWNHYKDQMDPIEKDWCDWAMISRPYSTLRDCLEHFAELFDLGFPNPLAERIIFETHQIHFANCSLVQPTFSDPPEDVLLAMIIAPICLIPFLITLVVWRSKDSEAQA

EC50 [1]	Max ThT signal (%) [2]	EC50 [3]	SMILES
0.021 nM	29.000%	> 5000 nM	CC[C@H](C)[C@H](NC(=O)[C@H](CCC(N)=O)NC(=O)[C@H](Cc1c[nH]cn1)NC(=O)[C@H](C)NC(=O)[C@H](CC(C)C)NC(=O)[C@H](CCCNC(N)=O)NC(=O)[C@H](CCC(N)=O)NC(=O)[C@@H](NC(=O)[C@@H](NC(=O)[C@@H]1CSSC[C@H](NC(=O)CN)C(=O)N[C@@H](CCCNC(=N)N)C(=O)N[C@@H]([C@@H](C)O)C(=O)NCC(=O)N[C@@H]([C@@H](C)O)C(=O)N1)[C@@H](C)O)C(C)C)C(=O)N[C@@H](Cc1ccc(O)cc1)C(=O)N[C@@H](CCC(N)=O)C(=O)N[C@@H](Cc1ccccc1)C(=O)N[C@H](C(=O)N[C@@H](CC(=O)O)C(=O)N[C@@H](CCCCN)C(=O)N[C@@H](CC(=O)O)C(=O)N[C@@H](CCCCN)C(=O)N[C@@H](CC(=O)O)C(=O)N[C@@H](CC(N)=O)C(=O)N[C@H](C(=O)N[C@@H](C)C(=O)N1CCC[C@H]1C(=O)N[C@@H](CCCNC(=N)N)C(=O)N[C@H](C(=O)N[C@@H](CC(N)=O)C(=O)N[C@H](C(=O)NCC(=O)N1CCC[C@H]1C(=O)N[C@@H](CCC(N)=O)C(=O)NCC(=O)N[C@@H](Cc1ccc(O)cc1)C(N)=O)C(C)C)[C@@H](C)O)C(C)C)[C@@H](C)O [compound 273] (H-GCRTGTCTVQ[Cit]LAHQIYQFTDKDKDNVAPRTNVGPQGY-NH2; disulfide 2-7; N-terminus assumed)
0.005 nM	34.500%	> 5000 nM	CC[C@H](C)[C@H](NC(=O)[C@H](CCC(N)=O)NC(=O)[C@H](Cc1c[nH]cn1)NC(=O)[C@H](C)NC(=O)[C@H](CC(C)C)NC(=O)[C@H](CCCNC(N)=O)NC(=O)[C@H](CCC(N)=O)NC(=O)[C@@H](NC(=O)[C@@H](NC(=O)[C@@H]1CSSC[C@H](NC(=O)CN)C(=O)N[C@@H](CCCNC(=N)N)C(=O)N[C@@H]([C@@H](C)O)C(=O)NCC(=O)N[C@@H]([C@@H](C)O)C(=O)N1)[C@@H](C)O)C(C)C)C(=O)N[C@@H](Cc1ccc(O)cc1)C(=O)N[C@@H](CCC(N)=O)C(=O)N[C@@H](Cc1ccccc1)C(=O)N[C@H](C(=O)N[C@@H](CC(=O)O)C(=O)N[C@@H](CCCCN)C(=O)N[C@@H](CC(=O)O)C(=O)N[C@@H](CCCCN)C(=O)N[C@@H](CC(=O)O)C(=O)N[C@@H](CC(N)=O)C(=O)N[C@H](C(=O)N[C@@H](C)C(=O)N1CCC[C@H]1C(=O)N[C@@H](CCCNC(=N)N)C(=O)N[C@H](C(=O)N[C@@H](CC(N)=O)C(=O)N[C@H](C(=O)NCC(=O)N1CCC[C@H]1C(=O)N[C@@H](CC(N)=O)C(=O)NCC(=O)N[C@@H](Cc1ccc(O)cc1)C(N)=O)C(C)C)[C@@H](C)O)C(C)C)[C@@H](C)O [compound 269] (H-GCRTGTCTVQ[Cit]LAHQIYQFTDKDKDNVAPRTNVGPNGY-NH2; disulfide 2-7; N-terminus assumed)
0.007 nM	18.650%	> 5000 nM	CC[C@H](C)[C@H](NC(=O)[C@H](CCC(N)=O)NC(=O)[C@H](CCC(=O)O)NC(=O)[C@H](C)NC(=O)[C@H](CC(C)C)NC(=O)[C@H](CCCNC(N)=O)NC(=O)[C@H](C)NC(=O)[C@@H](NC(=O)[C@@H](NC(=O)[C@@H]1CSSC[C@H](NC(=O)[C@@H](N)CCCNC(=N)N)C(=O)N[C@@H](CCC(N)=O)C(=O)N[C@@H]([C@@H](C)O)C(=O)N[C@@H](CO)C(=O)N[C@@H]([C@@H](C)O)C(=O)N1)[C@@H](C)O)C(C)C)C(=O)N[C@@H](C)C(=O)N[C@@H](CCC(N)=O)C(=O)N[C@@H](Cc1ccc(O)cc1)C(=O)N[C@H](C(=O)N[C@@H](CC(=O)O)C(=O)N[C@@H](CCCCN)C(=O)N[C@@H](CC(=O)O)C(=O)N[C@@H](CCCCN)C(=O)N[C@@H](CC(=O)O)C(=O)N[C@@H](CCC(N)=O)C(=O)N[C@H](C(=O)N[C@@H](C)C(=O)N1CCC[C@H]1C(=O)N1CCC[C@H]1C(=O)N[C@H](C(=O)N[C@@H](CC(N)=O)C(=O)N[C@H](C(=O)NCC(=O)N[C@@H](CO)C(=O)N[C@@H](CC(N)=O)C(=O)N[C@@H](CO)C(=O)N1C[C@H](O)C[C@H]1C(N)=O)C(C)C)[C@@H](C)O)C(C)C)[C@@H](C)O [compound 256] (H-RCQTSTCTVA[Cit]LAEQIAQYTDKDKDQVAPPTNVGSNS[Hyp]-NH2; disulfide 2-7; N-terminus assumed)

Reference: patent US12139520B2 (priority 2020, dated 2024)
